Measured values published in ChEMBL document CHEMBL1240356, “Efficacy profiles of daptomycin for treatment of invasive and noninvasive pulmonary infections with Streptococcus pneumoniae” (2010).
Activity calls are given as the source filed them. The rule behind the calls is not given here.

How the values were obtained:
[1] = tested on: Streptococcus pneumoniae; test: Antibacterial activity against high dose 1.5 x 10^7 CFU Streptococcus pneumoniae serotype 19 infected in semitherapeutic C57BL/6 mouse model assessed as reduction of bacteremia at 6 mg/kg, ip measured after 2 days post infection; format: functional, organism-based; parameters: dose 6 mg/kg
[2] = tested on: Streptococcus pneumoniae; test: Antibacterial activity against high dose 1.5 x 10^7 CFU Streptococcus pneumoniae serotype 2 infected in semitherapeutic C57BL/6 mouse model assessed as reduction of bacteremia at 6 mg/kg, ip measured after 10 day post infection; format: functional, organism-based; parameters: dose 6 mg/kg
[3] = tested on: Streptococcus pneumoniae; test: Antibacterial activity against high dose 1.5 x 10^7 CFU Streptococcus pneumoniae serotype 2 infected in therapeutic C57BL/6 mouse model assessed as bacterial count in blood at 6 mg/kg, ip measured after 3 days post infection; format: functional; details: route intraperitoneal
[4] = tested on: Streptococcus pneumoniae; test: Antibacterial activity against high dose 1.5 x 10^7 CFU Streptococcus pneumoniae serotype 2 infected in semitherapeutic C57BL/6 mouse model assessed as bacterial count in spleen at 6 mg/kg, ip measured after 1 day post infection; format: functional; details: route intraperitoneal
[5] = tested on: Streptococcus pneumoniae; test: Antibacterial activity against high dose 1.5 x 10^7 CFU Streptococcus pneumoniae serotype 19 infected in semitherapeutic C57BL/6 mouse model assessed as bacterial count in lung at 6 mg/kg, ip measured after 1 day post infection; format: functional; details: route intraperitoneal
[6] = tested on: Streptococcus pneumoniae; test: Antibacterial activity against high dose 1.5 x 10^7 CFU Streptococcus pneumoniae serotype 2 infected in therapeutic C57BL/6 mouse model assessed as bacterial count in lung at 6 mg/kg, ip measured after 4 days post infection; format: functional; details: route intraperitoneal
[7] = tested on: Streptococcus pneumoniae; test: Antibacterial activity against 5 x 10^6 CFU Streptococcus pneumoniae serotype 2 infected in semitherapeutic C57BL/6 mouse model assessed as bacterial count in lung at 6 mg/kg, ip measured after 1 day post infection; format: functional; details: route intraperitoneal
[8] = tested on: Streptococcus pneumoniae; test: Antibacterial activity against high dose 1.5 x 10^7 CFU Streptococcus pneumoniae serotype 2 infected in semitherapeutic C57BL/6 mouse model assessed as reduction of bacteremiar at 6 mg/kg, ip measured after 3 days post infection; format: functional, organism-based; parameters: dose 6 mg/kg
[9] = tested on: Streptococcus pneumoniae; test: Antibacterial activity against 1.5 x 10^7 CFU Streptococcus pneumoniae serotype 2 infected in therapeutic C57BL/6 mouse model assessed as effect on leukocytes infiltration in BALF at 6 mg/kg, ip measured on day 3 post infection; format: functional, organism-based; parameters: dose 6 mg/kg
[10] = tested on: Streptococcus pneumoniae; test: Antibacterial activity against 1.5 x 10^7 CFU Streptococcus pneumoniae serotype 2 infected in therapeutic C57BL/6 mouse model assessed as increase in compound level in BALF at 6 mg/kg, ip measured on day 3 post infection; format: functional, organism-based; parameters: dose 6 mg/kg
[11] = tested on: Streptococcus pneumoniae; test: Antibacterial activity against high dose 1.5 x 10^7 CFU Streptococcus pneumoniae serotype 19 infected in semitherapeutic C57BL/6 mouse model assessed as reduction of bacteremia at 6 mg/kg, ip measured after 3 days post infection; format: functional, organism-based; parameters: dose 6 mg/kg
[12] = tested on: Streptococcus pneumoniae; test: Antibacterial activity against 5 x 10^6 CFU Streptococcus pneumoniae serotype 2 infected in semitherapeutic C57BL/6 mouse model assessed as bacterial count in lung at 6 mg/kg, ip measured after 3 days post infection; format: functional; details: route intraperitoneal
[13] = tested on: Streptococcus pneumoniae; test: Antibacterial activity against high dose 1.5 x 10^7 CFU Streptococcus pneumoniae serotype 2 infected in semitherapeutic C57BL/6 mouse model assessed as bacterial count in spleen at 6 mg/kg, ip measured after 2 days post infection; format: functional; details: route intraperitoneal
[14] = tested on: Streptococcus pneumoniae; test: Antibacterial activity against high dose 1.5 x 10^7 CFU Streptococcus pneumoniae serotype 2 infected in semitherapeutic C57BL/6 mouse model assessed as bacterial count in lung at 6 mg/kg, ip measured after 2 days post infection; format: functional; details: route intraperitoneal
[15] = tested on: Streptococcus pneumoniae; test: Antibacterial activity against high dose 1.5 x 10^7 CFU Streptococcus pneumoniae serotype 19 infected in semitherapeutic C57BL/6 mouse model assessed as bacteremic mice at 6 mg/kg, ip measured after 5 day post infection; format: functional, organism-based; parameters: dose 6 mg/kg
[16] = tested on: Streptococcus pneumoniae; test: Antibacterial activity against 5 x 10^6 CFU Streptococcus pneumoniae serotype 2 infected in semitherapeutic C57BL/6 mouse model assessed as bacterial count in lung at 6 mg/kg, ip measured after 2 days post infection; format: functional; details: route intraperitoneal
[17] = tested on: Streptococcus pneumoniae; test: Antibacterial activity against low dose 5 x 10^6 CFU Streptococcus pneumoniae serotype 2 infected in semitherapeutic C57BL/6 mouse model assessed as reduction of bacteremia at 6 mg/kg, ip measured after 5 day post infection; format: functional, organism-based; parameters: dose 6 mg/kg
[18] = tested on: Streptococcus pneumoniae; test: Antibacterial activity against 1.5 x 10^7 CFU Streptococcus pneumoniae serotype 19 infected in therapeutic C57BL/6 mouse model assessed as effect on leukocytes infiltration in BALF at 6 mg/kg, ip measured on day 3 post infection; format: functional, organism-based; parameters: dose 6 mg/kg
[19] = tested on: Streptococcus pneumoniae; test: Antibacterial activity against low dose 5 x 10^6 CFU Streptococcus pneumoniae serotype 2 infected in semitherapeutic C57BL/6 mouse model assessed as reduction of bacteremia at 6 mg/kg, ip measured after 3 dayss post infection; format: functional, organism-based; parameters: dose 6 mg/kg
[20] = tested on: Streptococcus pneumoniae; test: Antibacterial activity against high dose 1.5 x 10^7 CFU Streptococcus pneumoniae serotype 19 infected in semitherapeutic C57BL/6 mouse model assessed as bacterial count in lung at 6 mg/kg, ip measured after 4 days post infection; format: functional; details: route intraperitoneal
[21] = tested on: Streptococcus pneumoniae; test: Antibacterial activity against low dose 5 x 10^6 CFU Streptococcus pneumoniae serotype 19 infected in semitherapeutic C57BL/6 mouse model assessed as bacteremic mouse at 6 mg/kg, ip measured after 1 day post infection; format: functional, organism-based; parameters: dose 6 mg/kg
[22] = tested on: Streptococcus pneumoniae; test: Antibacterial activity against 1.5 x 10^7 CFU Streptococcus pneumoniae serotype 2 infected in therapeutic C57BL/6 mouse model assessed as effect on lung permeability at 6 mg/kg, ip measured on day 3 post infection; format: functional, organism-based; parameters: dose 6 mg/kg
[23] = tested on: Streptococcus pneumoniae; test: Antibacterial activity against high dose 1.5 x 10^7 CFU Streptococcus pneumoniae serotype 2 infected in semitherapeutic C57BL/6 mouse model assessed as bacterial count in lung at 6 mg/kg, ip measured after 1 day post infection; format: functional; details: route intraperitoneal
[24] = tested on: Streptococcus pneumoniae; test: Antibacterial activity against low dose 5 x 10^6 CFU Streptococcus pneumoniae serotype 19 infected in semitherapeutic C57BL/6 mouse model assessed as bacteremic mouse at 6 mg/kg, ip measured after 3 days post infection; format: functional, organism-based; parameters: dose 6 mg/kg
[25] = tested on: Streptococcus pneumoniae; test: Antibacterial activity against low dose 5 x 10^6 CFU Streptococcus pneumoniae serotype 19 infected in semitherapeutic C57BL/6 mouse model assessed as bacteremic mouse at 6 mg/kg, ip measured after 10 day post infection; format: functional, organism-based; parameters: dose 6 mg/kg
[26] = tested on: Streptococcus pneumoniae; test: Antibacterial activity against 5 x 10^6 CFU Streptococcus pneumoniae serotype 2 infected in semitherapeutic C57BL/6 mouse model assessed as reduction of bacteremia at 6 mg/kg, ip measured after 2 days post infection; format: functional, organism-based; parameters: dose 6 mg/kg
[27] = tested on: Streptococcus pneumoniae; test: Antibacterial activity against 5 x 10^6 CFU Streptococcus pneumoniae serotype 2 infected in semitherapeutic C57BL/6 mouse model assessed as bacterial count in spleen at 6 mg/kg, ip measured after 1 day post infection; format: functional; details: route intraperitoneal
[28] = tested on: Streptococcus pneumoniae; test: Antibacterial activity against high dose 1.5 x 10^7 CFU Streptococcus pneumoniae serotype 2 infected in semitherapeutic C57BL/6 mouse model assessed as bacterial count in blood at 6 mg/kg, ip measured after 1 day post infection; format: functional; details: route intraperitoneal
[29] = tested on: Streptococcus pneumoniae; test: Antibacterial activity against high dose 1.5 x 10^7 CFU Streptococcus pneumoniae serotype 2 infected in therapeutic C57BL/6 mouse model assessed as bacterial count in lung at 6 mg/kg, ip measured after 3 days post infection; format: functional; details: route intraperitoneal
[30] = tested on: Streptococcus pneumoniae; test: Antibacterial activity against low dose 5 x 10^6 CFU Streptococcus pneumoniae serotype 19 infected in semitherapeutic C57BL/6 mouse model assessed as bacteremic mouse at 6 mg/kg, ip measured after 5 day post infection; format: functional, organism-based; parameters: dose 6 mg/kg

Structure (SMILES): CCCCCCCCCC(=O)N[C@@H](Cc1c[nH]c2ccccc12)C(=O)N[C@H](CC(N)=O)C(=O)N[C@@H](CC(=O)O)C(=O)N[C@@H]1C(=O)NCC(=O)N[C@@H](CCCN)C(=O)N[C@@H](CC(=O)O)C(=O)N[C@H](C)C(=O)N[C@@H](CC(=O)O)C(=O)NCC(=O)N[C@H](CO)C(=O)N[C@@H]([C@H](C)CC(=O)O)C(=O)N[C@@H](CC(=O)c2ccccc2N)C(=O)O[C@@H]1C
- Activity [1]: Active
- Activity [2]: Active
- log10cfu [3]: 2.3
- log10cfu [4]: 1.4
- log10cfu [5]: 6.4
- log10cfu [6]: 2.9
- log10cfu [7]: 5.4
- Activity [8]: Active
- Activity [9]: Active
- Activity [10]: inactive
- Activity [11]: Active
- log10cfu [12]: 3.8
- log10cfu [13]: 0.4
- log10cfu [14]: 4.2
- Activity [15]: Active
- log10cfu [16]: 3.6
- Activity [17]: Active
- Activity [18]: Active
- Activity [19]: Active
- log10cfu [20]: 4.5
- Activity [21]: Active
- Activity [22]: Active
- log10cfu [23]: 6
- Activity [24]: Active
- Activity [25]: Active
- Activity [26]: Active
- log10cfu [27]: 2.2
- log10cfu [28]: 2.6
- log10cfu [29]: 5.5
- Activity [30]: Active
